Consider 28 compounds from ChEMBL document CHEMBL3638030, “IC50 data for the L-type calcium channel extracted from a set of literature articles”.

For assay [1], the target named is T1, Voltage-dependent L-type calcium channel subunit alpha-1C (Rattus norvegicus, UniProt P22002). The assay can be described thus: (§1) Inhibition of Cav1.2 calcium current measured using FLIPR in rat aortic A7r5 cells. Type of assay: functional, cell-based.
Assay [2] addresses T2, Voltage-dependent L-type calcium channel subunit alpha-1C (Cavia porcellus, UniProt O35505). The assay can be described thus: (§2) Inhibition of Cav1.2 calcium current measured using whole cell patch clamp in guinea pig ventricular myocytes. The assay is classed as functional, cell-based, Heart, Ventricular myocyte. Set-up: ca sol conc 1.8 mM, temp 24-26 C.
In assay [3] the target is T1, Voltage-dependent L-type calcium channel subunit alpha-1C. Described as §1. The assay is classed as functional, cell-based. This is another data set of the same source.
For assay [4] the target is unchanged. The assay can be described thus: Inhibition of Cav1.2 calcium current measured using whole cell patch clamp in rat Artery myocytes. The assay is classed as functional, cell-based, Tail. Set-up: ca sol conc 5 mM, temp 20-22 C.
For assay [5] the target is unchanged. The assay can be described thus: (§3) Inhibition of Cav1.2 calcium current measured using whole cell patch clamp in rat myocyte. Type of assay: functional, Heart, Cardiac Muscle Cell. Further details: ca sol conc 1.8 mM, temp 20-25 C. For orientation: Patch clamp records ionic current or voltage across a cell membrane.
Assay [6] shares this target. In words: (§4) Inhibition of Cav1.2 calcium current measured using whole cell patch clamp in rat ventricular myocytes. The assay is classed as functional, cell-based, Heart, Ventricular myocyte. Further details: ca sol conc 1.8 mM, temp 25-27 C; call rule not given here.
In assay [7] the target is T2, Voltage-dependent L-type calcium channel subunit alpha-1C. The assay can be described thus: Inhibition of Cav1.2 calcium current measured using whole cell patch clamp in guinea pig atrial myocytes. Further details: ca sol conc 1.8 mM, temp 36 pm 1 C. Type of assay: functional, cell-based, Heart, Cardiac Muscle Cell.
The target of assay [8] is T1, Voltage-dependent L-type calcium channel subunit alpha-1C. Described as §4. The assay is classed as functional, cell-based, Heart, Ventricular myocyte. Set-up: ca sol conc 1 mM, temp 22-25 C.
Assay [9] deals with T2, Voltage-dependent L-type calcium channel subunit alpha-1C. The assay is described as §2. Type of assay: functional, cell-based, Heart, Ventricular myocyte. Further details: ca sol conc 1.8 mM, temp 35-36 C.
Assay [10] has the same target. The description is as §2. Type of assay: functional, cell-based, Heart, Ventricular myocyte. Set-up: ca sol conc 1.8 mM, temp 19 C.
The target of assay [11] is T1, Voltage-dependent L-type calcium channel subunit alpha-1C. The description is as §4. Type of assay: functional, cell-based, Heart, Ventricular myocyte. Further details: ca sol conc 2 mM, temp room.
The target in assay [12] is T3, Voltage-dependent L-type calcium channel subunit alpha-1C (Mus musculus, UniProt Q01815). In words: (§5) Inhibition of Cav1.2 calcium current measured using whole cell patch clamp in mouse ventricular myocytes. Type of assay: functional, cell-based, Heart. Set-up: ca sol conc 2.5 mM, temp 22-24 C. The conditions noted are these: ventricular myocyte.
Assay [13] deals with T2, Voltage-dependent L-type calcium channel subunit alpha-1C. The assay is described as §2. Type of assay: functional, cell-based, Heart, Ventricular myocyte. Further details: ca sol conc 1.8 mM.
Assay [14] shares this target. The description is as §2. Type of assay: functional, cell-based, Heart, Ventricular myocyte. Set-up: ca sol conc 1.8 mM. The source holds these as a separate data set.
Assay [15] concerns the target T1, Voltage-dependent L-type calcium channel subunit alpha-1C. The assay is described as §4. Type of assay: functional, cell-based, Heart, Ventricular myocyte. Further details: ca sol conc 1 mM, temp 34 C.
Assay [16] concerns the target L-type calcium channel alpha 1C/beta 2A (Oryctolagus cuniculus, UniProt P15381+P54288). In words: Inhibition of Cav1.2 calcium current measured using whole cell patch clamp in human HEK293 cells transfected with rabbit L-type calcium channel subunits. Type of assay: functional, cell-based. Further details: ca sol conc 5 mM, temp room.
In assay [17] the target is T1, Voltage-dependent L-type calcium channel subunit alpha-1C. The description is as §3. The assay is classed as functional, Heart. Set-up: ca sol conc 1.8 mM, temp 20-25 C. The settings on record: cardiac muscle cell.
Assay [18] has as its target T3, Voltage-dependent L-type calcium channel subunit alpha-1C. The assay is described as §5. Further details: ca sol conc 2 mM, temp room. The assay is classed as functional, cell-based, Heart, Ventricular myocyte.
Assay [19] shares this target. The assay is described as §5. The assay is classed as functional, cell-based, Heart, Ventricular myocyte. Set-up: ca sol conc 2 mM, temp room. The source holds these as a separate data set.
Assay [20] concerns the target T1, Voltage-dependent L-type calcium channel subunit alpha-1C. Described as §4. Set-up: ca sol conc 1.8 mM, temp 25 C. The assay is classed as functional, cell-based, Heart, Ventricular myocyte.
Assay [21] has as its target T2, Voltage-dependent L-type calcium channel subunit alpha-1C. Described as §2. The assay is classed as functional, cell-based, Heart, Ventricular myocyte. Set-up: ca sol conc 1.8 mM, temp room.

As usually defined, the IC50 is the concentration that gives 50% inhibition.

T1 sequence (P22002 whole entry): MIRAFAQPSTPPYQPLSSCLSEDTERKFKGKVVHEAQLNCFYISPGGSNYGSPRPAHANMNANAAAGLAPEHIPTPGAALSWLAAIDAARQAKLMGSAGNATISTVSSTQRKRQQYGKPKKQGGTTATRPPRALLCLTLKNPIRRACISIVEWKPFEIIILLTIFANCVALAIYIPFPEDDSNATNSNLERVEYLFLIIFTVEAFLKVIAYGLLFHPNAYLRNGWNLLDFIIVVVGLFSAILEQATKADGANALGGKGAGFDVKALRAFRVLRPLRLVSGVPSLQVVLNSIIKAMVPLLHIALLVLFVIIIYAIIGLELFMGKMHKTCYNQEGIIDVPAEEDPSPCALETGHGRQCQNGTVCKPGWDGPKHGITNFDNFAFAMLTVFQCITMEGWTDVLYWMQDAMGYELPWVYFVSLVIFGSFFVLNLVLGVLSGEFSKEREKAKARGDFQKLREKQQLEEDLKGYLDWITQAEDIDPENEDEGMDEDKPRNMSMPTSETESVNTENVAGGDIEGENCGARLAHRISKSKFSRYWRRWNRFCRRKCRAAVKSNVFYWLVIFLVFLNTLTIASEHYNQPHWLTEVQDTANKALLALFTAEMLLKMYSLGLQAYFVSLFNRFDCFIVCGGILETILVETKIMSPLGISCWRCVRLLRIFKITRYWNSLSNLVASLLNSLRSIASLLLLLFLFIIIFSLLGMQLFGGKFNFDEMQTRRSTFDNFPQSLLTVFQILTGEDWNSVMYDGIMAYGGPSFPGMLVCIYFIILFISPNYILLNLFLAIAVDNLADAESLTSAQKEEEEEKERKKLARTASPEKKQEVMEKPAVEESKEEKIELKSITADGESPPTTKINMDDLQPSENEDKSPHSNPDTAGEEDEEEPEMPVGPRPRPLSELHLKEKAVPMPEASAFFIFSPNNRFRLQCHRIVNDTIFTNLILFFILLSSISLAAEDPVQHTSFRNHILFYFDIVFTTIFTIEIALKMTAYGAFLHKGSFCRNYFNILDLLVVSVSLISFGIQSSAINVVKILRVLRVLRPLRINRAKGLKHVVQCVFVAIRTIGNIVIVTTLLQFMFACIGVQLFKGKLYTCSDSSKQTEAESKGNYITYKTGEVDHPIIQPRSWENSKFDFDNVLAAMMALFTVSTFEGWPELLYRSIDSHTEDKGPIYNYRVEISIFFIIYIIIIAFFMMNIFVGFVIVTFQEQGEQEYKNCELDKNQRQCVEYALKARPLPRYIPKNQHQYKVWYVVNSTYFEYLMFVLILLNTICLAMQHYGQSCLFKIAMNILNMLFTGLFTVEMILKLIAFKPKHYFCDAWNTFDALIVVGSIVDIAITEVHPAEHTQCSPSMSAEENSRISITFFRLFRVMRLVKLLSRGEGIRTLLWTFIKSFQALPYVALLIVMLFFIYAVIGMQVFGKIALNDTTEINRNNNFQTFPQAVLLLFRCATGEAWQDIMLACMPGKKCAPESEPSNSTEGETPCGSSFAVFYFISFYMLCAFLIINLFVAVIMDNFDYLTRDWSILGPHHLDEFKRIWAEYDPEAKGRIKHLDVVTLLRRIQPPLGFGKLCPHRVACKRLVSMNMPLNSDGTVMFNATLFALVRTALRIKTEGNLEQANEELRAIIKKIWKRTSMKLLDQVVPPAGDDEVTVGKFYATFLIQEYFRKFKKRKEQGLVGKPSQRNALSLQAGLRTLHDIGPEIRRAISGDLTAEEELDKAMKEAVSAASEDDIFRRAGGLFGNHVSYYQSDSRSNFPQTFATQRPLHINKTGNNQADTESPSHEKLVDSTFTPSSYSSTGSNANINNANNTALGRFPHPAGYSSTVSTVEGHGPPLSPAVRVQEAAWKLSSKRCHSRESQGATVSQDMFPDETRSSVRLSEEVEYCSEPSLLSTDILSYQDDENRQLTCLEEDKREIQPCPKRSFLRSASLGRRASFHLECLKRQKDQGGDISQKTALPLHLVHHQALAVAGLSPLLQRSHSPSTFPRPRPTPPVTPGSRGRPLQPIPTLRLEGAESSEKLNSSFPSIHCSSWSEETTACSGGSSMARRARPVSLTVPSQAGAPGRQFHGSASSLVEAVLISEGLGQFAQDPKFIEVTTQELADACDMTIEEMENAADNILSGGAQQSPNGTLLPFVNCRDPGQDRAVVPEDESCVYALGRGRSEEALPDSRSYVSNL
T2 sequence (O35505 whole entry): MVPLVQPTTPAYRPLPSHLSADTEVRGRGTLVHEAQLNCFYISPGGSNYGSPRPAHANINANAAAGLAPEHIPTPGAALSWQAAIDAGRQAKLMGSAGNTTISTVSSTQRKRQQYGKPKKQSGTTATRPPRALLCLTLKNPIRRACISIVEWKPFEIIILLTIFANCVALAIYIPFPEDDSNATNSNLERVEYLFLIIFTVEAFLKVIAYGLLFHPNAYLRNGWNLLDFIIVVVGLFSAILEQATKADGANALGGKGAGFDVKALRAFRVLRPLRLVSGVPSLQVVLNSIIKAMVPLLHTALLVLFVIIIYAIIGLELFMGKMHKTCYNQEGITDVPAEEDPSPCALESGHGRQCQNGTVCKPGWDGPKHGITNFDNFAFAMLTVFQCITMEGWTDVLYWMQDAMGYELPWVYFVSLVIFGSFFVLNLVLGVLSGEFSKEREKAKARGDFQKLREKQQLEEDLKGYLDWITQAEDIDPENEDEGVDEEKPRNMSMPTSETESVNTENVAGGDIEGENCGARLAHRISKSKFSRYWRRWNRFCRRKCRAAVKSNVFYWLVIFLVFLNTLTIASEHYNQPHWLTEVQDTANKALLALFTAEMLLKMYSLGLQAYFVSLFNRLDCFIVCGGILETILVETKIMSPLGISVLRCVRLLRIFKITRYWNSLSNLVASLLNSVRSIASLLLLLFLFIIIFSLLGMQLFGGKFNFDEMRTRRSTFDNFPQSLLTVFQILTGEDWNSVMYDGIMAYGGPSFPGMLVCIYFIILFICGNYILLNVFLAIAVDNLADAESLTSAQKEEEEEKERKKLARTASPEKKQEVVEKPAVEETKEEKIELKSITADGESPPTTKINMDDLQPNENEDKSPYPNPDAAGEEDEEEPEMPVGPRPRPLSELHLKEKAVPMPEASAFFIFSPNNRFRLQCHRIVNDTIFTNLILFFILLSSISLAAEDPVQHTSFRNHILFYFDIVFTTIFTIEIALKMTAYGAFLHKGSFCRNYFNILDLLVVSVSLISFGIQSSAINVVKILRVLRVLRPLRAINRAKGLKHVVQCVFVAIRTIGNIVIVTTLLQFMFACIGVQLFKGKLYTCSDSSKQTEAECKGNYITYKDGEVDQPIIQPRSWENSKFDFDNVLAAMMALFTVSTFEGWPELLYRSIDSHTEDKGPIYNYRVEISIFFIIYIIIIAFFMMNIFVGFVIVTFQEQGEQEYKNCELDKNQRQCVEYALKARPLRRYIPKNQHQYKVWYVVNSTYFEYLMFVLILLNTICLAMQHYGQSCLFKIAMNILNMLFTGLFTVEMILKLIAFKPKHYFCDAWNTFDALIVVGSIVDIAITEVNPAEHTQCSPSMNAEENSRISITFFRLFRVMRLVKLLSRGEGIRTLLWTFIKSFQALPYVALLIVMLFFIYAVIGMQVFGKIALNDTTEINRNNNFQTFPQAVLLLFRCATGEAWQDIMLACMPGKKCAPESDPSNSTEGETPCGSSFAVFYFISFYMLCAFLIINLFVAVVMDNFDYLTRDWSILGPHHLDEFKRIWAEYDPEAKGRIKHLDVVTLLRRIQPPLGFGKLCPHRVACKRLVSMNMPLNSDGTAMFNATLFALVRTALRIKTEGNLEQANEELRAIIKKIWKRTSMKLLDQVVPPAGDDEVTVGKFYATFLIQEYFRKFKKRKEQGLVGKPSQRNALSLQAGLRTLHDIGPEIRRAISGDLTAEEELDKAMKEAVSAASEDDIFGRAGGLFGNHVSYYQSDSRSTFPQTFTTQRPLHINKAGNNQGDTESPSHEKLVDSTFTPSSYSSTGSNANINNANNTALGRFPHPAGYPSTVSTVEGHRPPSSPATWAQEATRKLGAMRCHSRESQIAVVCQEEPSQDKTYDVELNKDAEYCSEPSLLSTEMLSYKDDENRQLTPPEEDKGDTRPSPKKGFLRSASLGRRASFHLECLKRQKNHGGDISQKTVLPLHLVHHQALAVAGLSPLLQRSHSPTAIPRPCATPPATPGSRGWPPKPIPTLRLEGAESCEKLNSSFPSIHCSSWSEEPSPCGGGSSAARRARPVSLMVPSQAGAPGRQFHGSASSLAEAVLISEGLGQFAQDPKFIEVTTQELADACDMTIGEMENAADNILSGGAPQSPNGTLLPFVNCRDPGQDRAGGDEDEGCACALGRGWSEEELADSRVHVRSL

As to `COCCOc1cccc(F)c1CCN1CCC(CC(=O)N[C@@H](c2ccc(F)cc2)C(C)C)CC1`, the IC50 in assay [1] worked out at 3.1 µM.
Regarding `CC(=O)N(CCOc1cccc2ccccc12)CCc1ccc(NS(C)(=O)=O)cc1`, in assay [2], the IC50 is 0.909 µM.
Consider `COc1ccccc1CCN1CCC(CC(=O)N[C@@H](c2ccc(F)cc2)C(C)C)CC1`, for which the IC50 in [1] stood at 6.8 µM.
As to `COc1cccc(CCN2CCC(CC(=O)N[C@@H](c3ccc(F)cc3)C(C)C)CC2)c1`, the IC50 in [3] was found to be 7 µM; in [1], 2.2 µM.
For `O=c1c(O)c(-c2ccc(O)cc2)oc2cc(O)ccc12` [RESOKAEMPFEROL], the IC50 in [4] was determined as 27.5 µM.
In the case of `CC(=O)N1CCN(c2ccc(OCC3COC(Cn4ccnc4)(c4ccc(Cl)cc4Cl)O3)cc2)CC1` (stereo unspecified) [KETOCONAZOLE], the IC50 in assay [5] turned out to be 3.5 µM.
Consider `O=C1c2ccccc2-c2c3c(cc4ccnc1c24)OCO3` [LIRIODENINE], for which, in assay [6], the IC50 is 2.5 µM.
Turning to `CC(C)COCC(CN(Cc1ccccc1)c1ccccc1)N1CCCC1` (stereo unspecified) [BEPRIDIL], the IC50 in [7] was 1.55 µM.
For the compound `O=C(/C=C/c1ccc(O)c(O)c1/C=C/c1ccc(O)c(O)c1)O[C@H](Cc1ccc(O)c(O)c1)C(=O)O` [SALVIANOLIC ACID A], the IC50 in assay [8] stood at 38.3 µM.
Consider `O=c1cc(-c2ccccc2O)oc2cc(O)cc(O)c12`, for which the IC50 in assay [4] worked out at 45.1 µM.
For the compound `CC(CC(c1ccccc1)c1ccccc1)NC(C)(C)C` (stereo unspecified) [TERODILINE], the IC50 in assay [9] was determined as 33.5 µM.
For the compound `COc1ccc(CCNC(C)COc2c(C)cccc2C)cc1OC` (stereo unspecified), in assay [10], the IC50 stood at 28.5 µM.
Regarding `COCCOc1ccccc1CCN1CCC(CC(=O)N[C@@H](c2ccc(F)cc2)C(C)C)CC1`, the IC50 in [11] was 38 µM.
On to `CC(C)c1c(C(=O)Nc2ccccc2)c(-c2ccccc2)c(-c2ccc(F)cc2)n1CC[C@@H](O)C[C@@H](O)CC(=O)O` [ATORVASTATIN], for which the IC50 entry in assay [12] is “inactive at 10nM. Original reference for datapoint is pubmed_id: 17466325”.
With `CN1CCC(=C2c3ccccc3C=Cc3ccccc32)CC1` [CYPROHEPTADINE], the IC50 in assay [13] turned out to be 42.2 µM; in assay [14], 7.75 µM.
In the case of `COC(=O)CCc1ccc(OCC(O)CNC(C)C)cc1` (stereo unspecified) [ESMOLOL], the IC50 in assay [15] amounted to 450 µM.
Consider `COCCOc1ccc(F)cc1CCN1CCC(CC(=O)N[C@@H](c2ccc(F)cc2)C(C)C)CC1`, for which, in assay [1], the IC50 was 3.1 µM.
As to `COc1ccc2c(c1)c(C1=C(c3c[nH]c4ccccc34)C(=O)NC1=O)cn2CCCN(C)C`, the IC50 in [16] is 20 µM.
For `OC(Cn1cncn1)(Cn1cncn1)c1ccc(F)cc1F` [FLUCONAZOLE], the IC50 entry in [17] was “inactive at 10uM. Original reference for datapoint is pubmed_id: 22975497”.
In the case of `COc1ccc(CCN(C)CCCOc2ccc(S(=O)(=O)c3c(C(C)C)cn4ccccc34)cc2)cc1OC` [FANTOFARONE], the IC50 came to 0.0014 µM in [18] and 0.15 µM in assay [19].
In the case of `COc1ccc(OCCCN(C)CCOc2ccc3c(c2)OCO3)c([C@@H]2Sc3ccccc3N(C)C2=O)c1` [LEVOSEMOTIADIL], in assay [7], the IC50 was determined as 1.29 µM.
For `O=C(O)c1ccccc1Nc1ccccc1` [FENAMIC ACID], the IC50 in [20] came out at 470 µM.
On to `CCN(CC)CC#CC(C)(C)OC(=O)C(O)(c1ccccc1)C1CCCCC1` (stereo unspecified) [TEMIVERINE], for which the IC50 in assay [9] stood at 27 µM.
For `O=C1CC(c2ccc(O)cc2)Oc2cc(O)cc(O)c21` (racemic), in assay [4], the IC50 came to 100 µM.
In the case of `O=C1COc2c1c(=O)c1ccc(Br)cc1n2Cc1ccccc1F`, in assay [6], the IC50 came out at 4.9 µM.
As for `COc1ccc2c(c1)CN(C(=O)CCN1CCC(Cc3ccccc3)CC1)CCS2`, in assay [13], the IC50 turned out to be 3 µM.
As for `N#Cc1cc2c(OCC(O)CN3CCN(C(c4ccccc4)c4ccccc4)CC3)cccc2[nH]1` (stereo unspecified), the IC50 in [21] was 1.1 µM.
With `Cc1cc2c(OCC(O)CN3CCN(C(c4ccccc4)c4ccccc4)CC3)cccc2[nH]1` (stereo unspecified), in [21], the IC50 is 3.6 µM.
